Legend:
[1] = system: meropenem-resistant NDM-1 K. pneumoniae R3934; assay: Sepsis infection model in mice; format: in vivo; details: CD-1 mice, i.p., 1 h and 24 h post-infection
Procedure: Sepsis infection model: About six-week-old, female CD-1 mice (weight, ˜19-24 g) were used for the experiments. Mice were infected intraperitoneally (i.p.) with a dose of ˜10^6 CFU/mouse of meropenem-resistant NDM-1 K. pneumoniae R3934. Then, mice were treated twice at 1 h and 24 h post-infection with a specified i.p. dose of either saline, meropenem (10 mg/kg), compound 4 (10 mg/kg), or a combination of compound 4 (10 mg/kg) and meropenem (10 mg/kg). Here, colistin (5 mg/kg) was used as a positive control. Mice were euthanized after 48 h post-infection and then liver, spleen, kidney and lungs were collected to find out the bacterial density in these organs. Organs were placed into 10 ml sterile saline on ice, and then homogenized. The dilutions of the homogenate were plated onto agar plates, which were incubated for 24 h at 37° C. The bacterial titer was expressed as log10 CFU/g of organ weight.

NDM-1 enzyme = target: T1, NDM-1 enzyme (Klebsiella pneumoniae, UniProt C7C422); assay: NDM-1 enzyme inhibition, nitrocefin substrate; format: biochemical
T1 construct: made in house; host or cells: E. coli BL21 (DE3)
T1 sequence (C7C422 29-270, looked up, species assumed): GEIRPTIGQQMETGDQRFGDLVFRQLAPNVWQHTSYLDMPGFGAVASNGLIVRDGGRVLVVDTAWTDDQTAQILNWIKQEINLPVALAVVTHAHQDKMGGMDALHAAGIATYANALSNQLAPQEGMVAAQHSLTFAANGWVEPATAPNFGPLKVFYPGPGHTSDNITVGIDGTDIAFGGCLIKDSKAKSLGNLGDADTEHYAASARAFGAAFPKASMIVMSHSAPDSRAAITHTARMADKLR
Procedure: The NDM-1 was produced by E. coli BL21 (DE3) carrying pET30a-NDM-1 in LB medium. Initially, the purified NDM-1 enzyme (5 nM, HEPES buffer, pH-7.4) was supplemented with 20 μM ZnSO4 for 30 min. Next, the enzyme was pre-incubated with the inhibitor (compound 4) for 20 min prior to the initiation of the assay by the addition of the substrate (Nitrocefin, 30 μM). Assays were read in 96-well microplate format at 490 nm (absorbance) using TECAN plate reader (Infinite Pro.) at 37° C. IC50s were deduced from a plot of percent loss of activity versus inhibitor concentration.

[2] = system: Vancomycin-sensitive E. faecium (ATCC 19634); assay: MIC, micro-dilution broth, VSEm; format: cell-based; details: Enterococcus faecium, ATCC19634
Procedure: (§1) Test compounds were assayed in a micro-dilution broth format. Stock solutions were made by serially diluting the compounds using autoclaved millipore water or broth media. The antibacterial activity of the compounds was determined against gram positive bactreia like methicillin-resistant S. aureus (MRSA), vancomycin-intermediate-resistant S. aureus (VISA), vancomycin-sensitive E. faecium (VSE), vancomycin-resistant E. faecalis and vancomycin-resistant E. faecium (VRE). Antibacterial activity of dipicolyl-vancomycin conjugate conjugate (4) in combination with meropemem was determined against gram-negative bacteria such as K. pneumoniae ATCC BAA2146, clinical isolates K. pneumoniae R3949, K. pneumoniae R3934, E. coli R3336 and A. baumanii R676. Bacteria, to be tested, were grown for about 10 h in the suitable media, MRSA, VISA and gram negative bacteria were grown in Yeast-dextrose broth (about 1 g of beef extract, about 2 g of yeast extract, about 5 g of peptone and about 5 g of NaCl in about 1000 mL of sterile distilled water (pH-7)). For solid media, about 5% agar was used along with above mentioned composition. VSE and VRE were cultured in Brain Heart Infusion broth (Himedia). The bacterial samples were freeze dried and stored at −80° C. About 5 μL of these stocks were added to about 3 mL of the nutrient broth or Brain Heart Infusion broth and the culture was grown for about 6 h at about 37° C. prior to the experiments. This 6 h grown culture gives about 10^9 cfu/mL and this was determined by spread plating method. The 6 h grown culture was diluted to give effective cell concentration of about 10^5 cfu/mL which was then used for determining MIC. Compounds were serially diluted, in sterile water (2-fold dilution is employed) in a way that the working concentration was about 10 μM for MRSA, and VSE while for VRE, VISA and gram negative bacteria; it was about 100 μM. About 50 μL of these serial dilutions were added to the wells of 96 well plate followed by the addition of about 150 μL of bacterial solution. The plates were then incubated at about 37° C., 150 rpm in the incubator and O.D at 620 nm was recorded at an interval of about 24 h using TECAN (Infinite series, M200 pro) Plate Reader. Each concentration had triplicate values and the whole experiment was done at least twice and the MIC value was determined by taking the average of triplicate O.D. values for each concentration and plotting it against concentration. The data was then subjected to sigmoidal fitting.

MRSA = assay: Resistance development study, serial passages; format: cell-based, S. aureus; details: passaged at MIC/2
Procedure: MIC values of the compound 4 and vancomycin were determined against MRSA as described above. For the next day MIC experiment, the bacterial dilution was made by using the bacteria from sub-MIC concentration of the compounds (at MIC/2). Then, the concentration of this bacteria was adjusted to ˜10^5 CFU/mL based on OD600 and subjected to next MIC assay. After a 24 h incubation period, again bacterial dilution was prepared by using the bacterial suspension from sub-MIC concentration of the compound (at MIC/2) and assayed for another MIC experiment. The process was repeated for 25 passages, and the fold increase in MIC was determined. […] Thus bacteria were unable in acquiring resistance to this compound and this emphasizes the longevity of such compounds in clinics.

[3] = system: Vancomycin intermediate resistant S. aureus; assay: MIC, micro-dilution broth, VISA; format: cell-based; details: Staphylococcus aureus
Procedure: as §1

[4] = system: Methicillin-resistant S. aureus (ATCC 33591); assay: MIC, micro-dilution broth, MRSA; format: cell-based; details: Staphylococcus aureus
Procedure: as §1

CN[C@H](CC(C)C)C(=O)N[C@H]1C(=O)N[C@@H](CC(N)=O)C(=O)N[C@H]2C(=O)N[C@H]3C(=O)N[C@H](C(=O)N[C@H](C(=O)NCCCCCCN(Cc4ccccn4)Cc4ccccn4)c4cc(O)cc(O)c4-c4cc3ccc4O)[C@H](O)c3ccc(c(Cl)c3)Oc3cc2cc(c3O[C@H]2OC(CO)[C@H](O)C(O)C2O[C@H]2CC(C)(N)[C@H](O)C(C)O2)Oc2ccc(cc2Cl)[C@H]1O (some centres unmarked) [Compound 4, Dipicolyl-vancomycin conjugate]
in-vivo antibacterial activity, bacterial titer in organs ([1]; 10 mg/kg alone): did not show any activity | in-vivo antibacterial activity, bacterial titer in organs ([1]; compound 4 (10 mg/kg) in combination with meropenem (10 mg/kg)): excellent antibacterial activity | IC50 (NDM-1 enzyme): ~6 µM | effect on the activity of NDM-1 (NDM-1 enzyme; nitrocefin as substrate): potent in-vitro dose-dependent inhibition | MIC [2]: 0.3 µM | fold increase in MIC after 25 serial passages (MRSA): remained the same | MIC [3]: 0.4 µM | MIC [4]: 0.6 µM
